Patent US10006080B2, “High-selectivity contact activation inhibitor based on infestin-4” (OBSCHESTVO S OGRANICHENNOY OTVETSTVENNOSTYU …, priority 2013, dated 2018)

B1: corn trypsin inhibitor (other, UniProt P01088 29-138, looked up)
chain: SAGTSCVPGWAIPHNPLPSCRWYVTSRTCGIGPRLPWPELKRRCCRELADIPAYCRCTALSILMDGAIPPGPDAQLEGRLEDLPGCPREVQRGFAATLVTEAECNLATIS
notes: Isolated from corn; also called CTI

Legend:
[1] = system: contact-activated coagulation; assay: APTT test in platelet free plasma of a healthy donor (kaolin-cephalin activation); type: biochemical, human; details: for concentration at which the APTT increases nearly four-fold / concentration leading to 2.5-fold increase of APTT: normal plasma
Experimental: The assessment of activity of the polypeptide comprising the sequence of an infestin-4 mutant MutB by its inhibition of the contact-activated coagulation shall be considered further with a reference to FIG. 1. Native infestin-4 and mutants MutB and Mut15 were added into 3 separate samples of platelet free plasma (PFP) of a healthy donor, with subsequent measuring time of contact-activated clotting in the APTT test.
Blood plasma from healthy donors was processed according to standard protocols of blood collection for coagulation assays (Collection, Transport, and Processing of Blood Specimens for Testing Plasma-Based Coagulation Assays and Molecular Hemostasis Assays; Approved Guideline Fifth Edition by Clinical and Laboratory Standards Institute (CLSI) H21-A5 Vol. 28 No. 5). 0.38% sodium citrate was added into blood to block the calcium ions.
The APTT test was administered using the reagent kits “Coagulo-test” (Scientific-production association Renam, Moscow, Russia) and different concentrations of the following contact activation inhibitors: native infestin-4, MutB, and Mut15. To do that, 50 microliters of blood plasma from a healthy donor were mixed with 5.6 microliters of a 10× solution of different inhibitor concentrations and incubated for 15 minutes at 37° C. Then, according to the “Coagulo-test” manual, 25 microliters of the mixture were transferred into the cuvette of the coagulometer Helena-C2, with addition of 25 microliters of kaolin-cephalin mixture activating fXII in blood plasma. After incubation at 37° C. for 3 minutes, 25 microliters of the calcium chloride solution in the initial concentration of 25 mM was added, and the time of fibrin clot formation in the coagulometer cuvette was determined photometrically.
APTT dependences on concentrations of native infestin-4, MutB and Mut15 obtained in the same way as in Example 1, are shown on FIG. 1.

[2] = system: TF-initiated fibrin clot growth; assay: Thrombodynamics analyzer T-2, fibrin clot growth from immobilized TF in normal and hypocoagulant PFP (0.1 IU/ml heparin); type: biochemical, human; details: MutB 20 μM, CTI 15 μM; n=4
Experimental: The influence of contact activation inhibitors on coagulation dynamics can be shown on the example of fibrin clot growth from the surface with immobilized TF. The dynamics of fibrin clot growth from the activator can be characterized by the following parameters: delay of clot formation after the contact of plasma with the tissue factor—lag time (Tlag, min); average clot growth velocity within 2-6 minutes after the start of coagulation—initial velocity (Vin, μm/min); and average clot growth velocity within 15-25 minutes after the start of coagulation—stationary velocity (Vst, μm/min) (Balandina et al. 2011, Biophys. J. 101:1816-1824; Dashkevich et at 2012, Biophys. J. 103:2233-2240). The mentioned parameters allow determining the state of blood coagulation of the subjects from whom the test samples were obtained («Practical coagulology», M A Panteleev, S A Vasilyev, E I Sinauridze and co-authors, ed. by A I Vorobyov. Moscow, publishing house «Practical medicine», 2011, 192 pages., ISBN: 978-5-98811-165-8). […]

| Molecule | APTT ([1]; 10 μM inhibitor in PFP, 45 sec without inhibitor) [s] | activity in blood plasma in comparison to Mut15 ([1]; APTT dose-dependence) | activity in blood plasma in comparison with Mut15 and native infestin-4 ([1]; APTT dose-dependence, FIG. 1) | concentration at which the APTT increases nearly four-fold [1] [µM] | concentration leading to 2.5-fold increase of APTT [1] [µM] | influence on the difference of fibrin clot growth dynamics between hypocoagulant and normal plasma [2] |
| --- | --- | --- | --- | --- | --- | --- |
| MutB: polypeptide comprising the sequence of infestin-4 mutant MutB (SEQ ID NO: 1), inhibition loop TRNFVA; high-selectivity fXIIa inhibitor (EVRNPCACTRNFVAVCGSDGKTYGNPCMLNCAAQTKVPGLKLVHEGRCQRSNVEQF; Infestin-4 mutant MutB) | 120 | nearly twofold | increased activity | 20 | 10 | does not have any influence |
| B1 |  |  |  | 15 | 5 | does not have any influence |
